Measured values: PubChem BioAssay AID504313 (Emory University Molecular Libraries Screening Center, 2011)
Activity calls are given as the source filed them. How the calls were made is not given here.

molecular target: X-box-binding protein 1 (Homo sapiens) (UniProt P17861); experiment: inhibitors of XBP1 reporter signal, dose response, counter-screen, cell-based (AID 504313); conditions: XBP1 reporter cell assay, percent of control;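 further: CHO cells carrying an XBP1 reporter stimulated with tunicamycin; potency is for inhibition of the tunicamycin-induced reporter signal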

| Structure (SMILES) | IC50 |
| --- | --- |
| O=C(Cc1ccccc1)NC(=S)Nc1cccc(C(F)(F)F)c1 | inactive |
| Cc1cccc(Nc2nc(N)c([N+](=O)[O-])c(N3CC(C)CC(C)C3)n2)c1 (stereo not given) | inactive |
| O=Nc1ccc(O)c2ncccc12 | 5.08 µM |
| Cc1ccc(-c2nc(C(Cl)Cl)c3ccccc3n2)cc1 | 5.22 µM |
| COc1ccc(-c2nn(-c3ccccc3)cc2/C=N/NC(=O)c2ccc(Br)o2)cc1 | inactive |
| Clc1ccc2c(N/N=C/c3ccc(Br)cc3)ccnc2c1 | > 10 µM (inactive) |
| CC(C)Oc1cc(NC(=O)CS(=O)CC(=O)Nc2cccc(C(F)(F)F)c2)c(Cl)cc1Cl (stereo not given) | inactive |
| Cc1cc(C)cc(OC2CCCCC2NS(=O)(=O)c2ccccc2)c1 (stereo not given) | > 10 µM (inactive) |
| CCCCS(=O)(=O)/C=C\C=C/S(=O)(=O)CCCC | 2.68 µM |
| Cc1cc(C)cc(NC(=O)/C(C#N)=C/c2cn(CC(=O)NCc3ccco3)c3ccccc23)c1 | 4.94 µM |
| C[C@H](NC(=O)c1[nH]cnc1C(=O)Nc1ccc(Cl)cc1)C(=O)OC(C)(C)C | inactive |
| CCCOC(=O)c1ccc(Oc2cn[nH]c2-c2ccc(OC)cc2O)cc1 | 4.82 µM |
| COc1cc(CNCc2ccccn2)ccc1OCc1ccc(Cl)cc1Cl | > 10 µM (inactive) |
| CCCCCn1c(SCCC(C)C)nc2c1c(=O)[nH]c(=O)n2C | inactive |
| O=C(CCl)N(c1ccc(Cl)cc1)c1c[nH]c2ccccc12 | inactive |
| CCCCCCOC(=O)c1ccccc1N | > 10 µM (inactive) |
| COc1ccc(Cn2c(C)c(C)c(C#N)c2NC(=O)Nc2ccc(Cl)cc2)cc1 | > 10 µM (inactive) |
| OCCCNc1nccc(-c2cc(Nc3cccc(Cl)c3)ncn2)n1 | 0.3 µM |
| OC(COCC(F)(F)C(F)(F)C(F)(F)C(F)F)Cn1c2ccccc2c2ccccc21 (stereo not given) | inactive |
| Cc1ccc(Cn2c(SCC(=O)Nc3cc(C)on3)nc3ccccc3c2=O)cc1 | > 10 µM (inactive) |
| CN1CCN(CC(=O)N2CCn3c4c(c5cc(C6CCCCC6)ccc53)CCCC42)CC1 (stereo not given) | > 10 µM (inactive) |
| Cc1cccc(OCc2n(CC(=O)OC3CC(C)CCC3C(C)C)c3ccccc3[n+]2C)c1 (stereo not given) | > 10 µM (inactive) |
| CCCC(NCC(O)COc1ccc(-c2ccccc2)cc1)c1ccccc1 (stereo not given) | inactive |
| Nc1c(C(=O)Nc2ccccc2F)sc2nc(-c3cccnc3)ccc12 | > 10 µM (inactive) |
| Cc1nnc(NC(=O)c2sc3nc(-c4cccs4)cc(C(F)(F)F)c3c2N)s1 | inactive |

| Structure (SMILES) | IC50 |
| --- | --- |
| COC(=O)c1cc(NC(=S)Nc2cc(Cl)cc(Cl)c2)cc(C(=O)OC)c1 | > 10 µM (inactive) |
| CC(=O)NCc1ccc(C(=O)CCl)s1 | inactive |
| O=C1C(Nc2ccccc2)=C/C(=N/S(=O)(=O)c2cccs2)c2ccccc21 | 1.17 µM |
| COC(=O)c1ccccc1NC1=C/C(=N\S(=O)(=O)c2cccs2)c2ccccc2C1=O | inactive |
| O=C(NCc1nc(-c2ccc(C(F)(F)F)cc2)no1)Nc1ccc(OC(F)(F)F)cc1 | 4.26 µM |
| C=CCn1c(CCc2cc(C(C)(C)C)c(O)c(C(C)(C)C)c2)n[nH]c1=S | inactive |
| CCCCCCCn1c(=O)c(C(=O)Nc2cnccn2)c(O)c2ccccc21 | 2.1 µM |
| NC(=O)CC(NC(=O)Cc1cccc2ccccc12)c1ccc(NCCOc2ccccc2)c([N+](=O)[O-])c1 (stereo not given) | > 10 µM (inactive) |
| COc1ccc(NC(=O)/C(Cl)=C(/Cl)S(=O)Cc2ccccc2Cl)cn1 (stereo not given) | 0.92 µM |
| Cc1ccccc1CS(=O)(=O)c1nnc([C@H](Cc2ccccc2)NC(=O)OC(C)(C)C)o1 | inactive |
| C=CCn1c(C)cc(C2=NNC(=NCC)SC2)c1C | < 0.16 µM (inactive) |
| O=C(CCl)N1CCN2C(=O)c3ccccc3C12c1ccc(Cl)cc1 (stereo not given) | inactive |
| C/C=C(\C)C(=O)OC1C(C)=C2C(C1OC(=O)CCCCC)C(C)(OC(C)=O)CC(OC(=O)CCC)C1(O)C2OC(=O)C1(C)O (stereo not given) | 5.03 µM |
| CCC(CC)c1nnc(NC(=O)c2c(C)nn(Cc3ccccc3Cl)c2C)s1 | > 10 µM (inactive) |
| O=c1c(Cl)c(Cl)cnn1-c1ccccc1 | inactive |
| Cn1cnc([N+](=O)[O-])c1S(=O)(=O)c1ccc(Cl)cc1 | inactive |
| CC(/C=N/n1c(C2CCCCC2)n[nH]c1=S)=C\c1ccccc1 | > 10 µM (inactive) |
| COc1ccc(C(=O)c2c(C(F)(F)F)oc3c2C(=O)c2ccccc2C3=O)cc1 | inactive |
| OC(CNCC1CCCO1)Cn1c2ccc(Br)cc2c2cc(Br)ccc21 (stereo not given) | > 10 µM (inactive) |
| COc1cc(/C=C(\C#N)c2nc3ccccc3[nH]2)cc(Br)c1OCc1ccc(F)cc1 | inactive |
| COc1cc(/C=C(/C#N)c2nc3ccccc3[nH]2)ccc1OCC(=O)Nc1ccccc1C(C)C | inactive |
| Cc1cccnc1NC(=O)c1c(O)c2ccccc2n(C)c1=O | inactive |
| CC(C)(C)OC(=O)NCCc1nnc(S(=O)(=O)Cc2ccc(Cl)cc2Cl)o1 | 4.44 µM |
| COc1ccc2nc(Nc3nc(CSc4nc5ccccc5[nH]4)cc(=O)[nH]3)nc(C)c2c1 | > 10 µM (inactive) |
| Cc1ccccc1Oc1cc(-n2ncc(Cl)c(Cl)c2=O)ncn1 | 1.75 µM |

| Structure (SMILES) | IC50 |
| --- | --- |
| CC(C)(C)c1ccc(CN2N=Nc3ccccc3S2(=O)=O)cc1 | inactive |
| CNc1ccc2oc(C[C@H]3O[C@@]4(CC[C@H]3C)O[C@H]([C@H](C)C(=O)c3ccc[nH]3)[C@H](C)C[C@H]4C)nc2c1C(=O)O | 1.41 µM |
| O=[N+]([O-])c1ccc(COc2ccc(-c3[nH]ncc3-c3ccccc3)c(O)c2)cc1 | > 10 µM (inactive) |
| O=C(Nc1ccc(Cl)c(C(F)(F)F)c1)NC1CC2CCCC(C1)N2Cc1ccccc1 (stereo not given) | > 10 µM (inactive) |
| COc1cc(OC)nc(-n2ncc(Br)c(Br)c2=O)n1 | 1.99 µM |
| COc1ccccc1NCC(O)COc1ccc(C(C)(C)C)cc1 (stereo not given) | inactive |
| Cc1nc(Nc2nc(CSc3nc4ccccc4[nH]3)cc(=O)[nH]2)nc2ccccc12 | > 10 µM (inactive) |
| Cc1nn(-c2ccccc2Cl)c(Cl)c1/C=N/Nc1nc2ccccc2s1 | < 0.16 µM |
| COc1ccccc1NC(=O)c1c(Nc2ccccc2C)sc(C(=O)Nc2cccc(Cl)c2)c1N | > 10 µM (inactive) |
| CCOC(=O)c1nc(S(C)(=O)=O)ncc1Cl | inactive |
| CN1/C(=C/C(=O)c2nc(S(C)(=O)=O)ncc2Cl)C(C)(C)c2ccccc21 | inactive |
| COc1ccccc1-n1cc([C@@H]2C[C@H]3CN(c4ccccc4)C(=O)[C@]34CCCN24)cn1 | 0.74 µM |
| Cc1ccc(NP(=O)(Oc2ccccc2F)Oc2ccccc2F)cc1 | inactive |
| N#Cc1c(N)nc(SCC(=O)C23CC4CC(CC(C4)C2)C3)c(C#N)c1-c1ccc(Cl)cc1 | > 10 µM (inactive) |
| NC(=O)c1cc(-c2ccccc2)nc(N2CCCCCC2)n1 | inactive |
| FC(F)(F)c1cccc(NC(=S)Nc2ccc(Cl)cc2Cl)c1 | > 10 µM (inactive) |
| CS(=O)(=O)c1nc(-c2ccc(F)cc2)cc(C(F)(F)F)n1 | inactive |
| Nc1cc(Cl)c2nonc2c1[N+](=O)[O-] | inactive |
| Cc1ccc(/C=C2\SC(=S)N(CCCC(=O)Nc3ccc(O)cc3)C2=O)cc1 | < 0.16 µM |
| Cc1ccc(NC(=O)NC(=O)CN2C(=O)NC3(CCCCCCC3)C2=O)c(C)c1 | > 10 µM (inactive) |
| CC(C)(C)c1ccc(Oc2ccc(N)cc2)cc1 | < 0.16 µM |
| CCCCCCN=C(CC)c1c(O)n(CCCC)c(=O)[nH]c1=O | inactive |
| CN(C(=O)CCl)C1CCCc2ccccc21 (stereo not given) | inactive |
| O=C(NC(c1ccccc1)c1c(O)ccc2ccccc12)c1ccccc1Cl (stereo not given) | inactive |
| CC(C)(C)c1cc(S(=O)(=O)CCc2ccccn2)cc(C(C)(C)C)c1F | inactive |

| Structure (SMILES) | IC50 |
| --- | --- |
| CC(C)(C)c1ccc(-c2noc(CCC(N)=O)n2)cc1 | < 0.16 µM (inactive) |
| C=C1C(=O)O[C@@H]2C[C@@H](C)[C@@H]3C4OC4C(=O)[C@@]3(C)[C@@H](O)[C@H]12 (stereo not given in full) | 4.96 µM |
| COCCCn1c(N)c(C(=O)NCCC(C)C)c2nc3ccccc3nc21 | > 10 µM (inactive) |
| COc1ccc(NC(=O)c2cc3cccc(OC)c3oc2=Nc2ccc(C(=O)O)cc2)cc1OC | inactive |
| COc1ccccc1C(=O)NC(=Nc1nc2ccccc2o1)NC(=O)c1ccccc1OC | inactive |
| CC(C)=NOc1cc(NC(=O)CCl)cc([N+](=O)[O-])c1 | inactive |
| COc1ccc(OC)c2sc(NC(=O)c3ccc(Cl)s3)nc12 | > 10 µM (inactive) |
| CC(C)(C)c1ccc(S(=O)(=O)NCC(=O)Nc2sc3c(c2C(N)=O)CCCC3)cc1 | > 10 µM (inactive) |
| O=C(N/N=C/c1cccs1)c1cccc(NC(=O)c2ccc(Cl)cc2)c1 | inactive |
| Cc1cc(C)c(S(=O)(=O)NCCn2c(C)cc3ccccc32)c(C)c1 | > 10 µM (inactive) |
| Fc1cc(F)c2nc(Nc3nc4cc5c(cc4s3)OCO5)sc2c1 | > 10 µM (inactive) |
| Cc1ccc(-c2nn(-c3ccccc3)cc2/C=N/NC(=O)c2ccc(Br)o2)cc1 | inactive |
| C=C(C(=O)c1ccccc1)C(C)C(=C)C(=O)c1ccccc1 | inactive |
| C#CC(=O)N(c1ccc(OC)c(OC)c1)C(C(=O)NC1CCCC1)c1cccs1 (stereo not given) | inactive |
| COc1ccc([C@H]2Oc3cc(O)cc(O)c3C(=O)C2[C@@H]2C(=O)c3c(O)cc(O)cc3O[C@@H]2c2ccc(OC)cc2)cc1 (stereo not given in full) | > 10 µM (inactive) |
| CC1CCCC(NCC(O)COC(c2ccc(F)cc2)c2ccc(F)cc2)C1C (stereo not given) | inactive |
| CC(CNC(=S)Nc1cc(F)cc(F)c1)CSc1ccc(Cl)cc1 (stereo not given) | > 10 µM (inactive) |
| Cc1cccc(N2CCN(C(=O)c3c(C)nn(Cc4ccccc4Cl)c3C)CC2)c1C | > 10 µM (inactive) |
| O=C(Nc1ccccc1Cl)c1ccccc1Oc1ccc(C(F)(F)F)cc1[N+](=O)[O-] | inactive |
| CCC(Cc1ccccc1)n1c(=S)[nH]c2ccccc2c1=O (stereo not given) | > 10 µM (inactive) |
| COc1ccc(OCc2cccc(C(=O)O)c2)cc1 | 0.4 µM |
| COc1ccc(C2=NN(C(=O)c3ccco3)C(c3cc4ccccc4nc3Cl)C2)cc1 (stereo not given) | > 10 µM (inactive) |
| O=S1(=O)C=C(Sc2nc3ccccc3s2)c2ccccc21 | 2.74 µM |
| O=[N+]([O-])c1ccc(/C=N/n2c(C3CCCCC3)n[nH]c2=S)cc1 | > 10 µM (inactive) |
| CCc1ccc(-c2nc(CSCC(=O)NCc3ccco3)c(C)o2)cc1 | < 0.16 µM |
